Reference: patent publication US7728012B2, “Carboxamide compounds and their use as calpain inhibitors” (Abbott GmbH & Co. KG, priority 2006, dated 2010)

What was measured:
Format in all cases: biochemical
[1] = target: T1, calpain-I isolated from human erythrocytes (Homo sapiens, UniProt P07384); experiment: Calpain I kinetic fluorescence enzyme inhibition assay; conditions: apparent Ki from IC50 by Cheng-Prussoff; average of 2 to 4 dose-effect plots
T1 construct: calpain-I—isolated from human erythrocytes; purchased Calbiochem 208713; host or cells: human erythrocytes (tissue isolate)
T1 sequence (P07384 1-714): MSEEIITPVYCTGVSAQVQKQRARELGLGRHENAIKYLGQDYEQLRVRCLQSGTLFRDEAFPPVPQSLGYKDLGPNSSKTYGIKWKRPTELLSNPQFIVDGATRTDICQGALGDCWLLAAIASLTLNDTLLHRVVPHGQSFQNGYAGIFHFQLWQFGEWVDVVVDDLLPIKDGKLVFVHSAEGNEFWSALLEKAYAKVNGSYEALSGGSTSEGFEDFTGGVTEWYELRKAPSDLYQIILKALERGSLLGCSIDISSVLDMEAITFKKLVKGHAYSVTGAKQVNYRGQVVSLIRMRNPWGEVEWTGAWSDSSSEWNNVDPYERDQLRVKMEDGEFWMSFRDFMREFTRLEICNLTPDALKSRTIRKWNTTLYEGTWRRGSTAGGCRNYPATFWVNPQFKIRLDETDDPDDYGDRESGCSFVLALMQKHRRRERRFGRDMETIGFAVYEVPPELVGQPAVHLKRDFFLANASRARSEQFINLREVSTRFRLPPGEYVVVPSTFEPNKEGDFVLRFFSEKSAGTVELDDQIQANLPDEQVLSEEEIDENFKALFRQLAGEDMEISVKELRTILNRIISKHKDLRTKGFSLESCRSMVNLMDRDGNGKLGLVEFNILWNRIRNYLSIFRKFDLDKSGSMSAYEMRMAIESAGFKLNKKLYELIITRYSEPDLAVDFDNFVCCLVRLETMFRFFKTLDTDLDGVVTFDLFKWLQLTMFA
T1 sequence (P04632 1-268 partner): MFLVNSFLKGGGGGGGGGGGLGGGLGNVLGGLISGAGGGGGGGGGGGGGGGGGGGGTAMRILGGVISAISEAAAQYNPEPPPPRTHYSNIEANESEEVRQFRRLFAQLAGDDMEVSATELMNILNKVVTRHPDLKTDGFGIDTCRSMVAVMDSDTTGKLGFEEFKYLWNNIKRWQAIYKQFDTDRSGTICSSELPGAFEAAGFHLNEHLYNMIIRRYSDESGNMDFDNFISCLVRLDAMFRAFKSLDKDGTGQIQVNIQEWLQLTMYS

[2] = target: T2, cathepsin B isolated from human liver (Homo sapiens, UniProt P07858); experiment: Cathepsin B kinetic fluorescence enzyme inhibition assay; conditions: selectivity ratio versus calpain I
T2 construct: cathepsin B—isolated from human liver; purchased Calbiochem 219362; host or cells: human liver (tissue isolate)
Summary of the method: (§1)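 Cathepsin B (0.25 nM, human liver) with 100 μM Z-Phe-Arg-AMC; L (1 nM, human liver) with 2 μM Z-Phe-Arg-AMC; S (0.5 nM, recombinant) with 20 μM Z-Val-Val-Arg-AMC. pH 6.0 MES buffer, 2.5 mM L-cysteine, room temperature. Kinetic fluorescence (ex 390/em 460 nm); apparent Ki from IC50 by Cheng-Prusoff.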

[3] = target: T3, cathepsin K activated from recombinant human procathepsin K (Homo sapiens, UniProt P43235); experiment: Cathepsin K kinetic fluorescence enzyme inhibition assay; conditions: selectivity ratio versus calpain I
T3 construct: purchased Calbiochem 342001; host or cells: E. coli
T3 sequence (P43235 115-329): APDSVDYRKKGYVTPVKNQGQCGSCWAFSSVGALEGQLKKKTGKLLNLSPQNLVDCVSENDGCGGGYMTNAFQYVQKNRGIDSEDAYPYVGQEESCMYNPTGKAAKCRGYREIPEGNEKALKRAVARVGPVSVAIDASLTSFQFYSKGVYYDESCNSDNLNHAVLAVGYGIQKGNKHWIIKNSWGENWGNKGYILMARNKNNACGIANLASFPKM

[4] = target: T4, cathepsin L isolated from human liver (Homo sapiens, UniProt P07711); experiment: Cathepsin L kinetic fluorescence enzyme inhibition assay; conditions: selectivity ratio versus calpain I
T4 construct: cathepsin L—isolated from human liver; purchased Calbiochem 219402; host or cells: human liver (tissue isolate)
Summary of the method: as §1

[5] = target: T5, recombinant human cathepsin S (Homo sapiens, UniProt P25774); experiment: Cathepsin S kinetic fluorescence enzyme inhibition assay; conditions: selectivity ratio versus calpain I
T5 construct: purchased Calbiochem 219343; host or cells: E. coli
Summary of the method: as §1

T5 sequence (P25774 115-331): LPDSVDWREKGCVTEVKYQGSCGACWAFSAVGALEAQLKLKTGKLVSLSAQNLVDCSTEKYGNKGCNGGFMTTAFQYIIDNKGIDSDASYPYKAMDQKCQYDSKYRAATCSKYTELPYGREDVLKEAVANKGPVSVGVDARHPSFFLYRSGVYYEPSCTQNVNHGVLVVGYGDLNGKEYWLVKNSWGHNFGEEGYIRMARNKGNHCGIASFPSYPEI
T4 sequence (P07711 114-333): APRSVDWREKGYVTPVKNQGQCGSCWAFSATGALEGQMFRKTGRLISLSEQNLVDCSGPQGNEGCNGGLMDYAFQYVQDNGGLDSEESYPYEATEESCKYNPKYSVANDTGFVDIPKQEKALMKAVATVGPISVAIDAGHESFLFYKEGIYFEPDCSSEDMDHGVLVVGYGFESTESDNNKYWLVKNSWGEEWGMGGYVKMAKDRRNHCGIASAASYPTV

Structure (SMILES)	Ki [1] [nM]	Sel cat. B (Ki(cathepsin B)/Ki(calpain) ratio) [2]	Sel cat. K (Ki(cathepsin K)/Ki(calpain) ratio) [3]	Sel cat. L (Ki(cathepsin L)/Ki(calpain) ratio) [4]	Sel cat. S (Ki(cathepsin S)/Ki(calpain) ratio) [5]
NC(=O)C(=O)C(Cc1ccccc1)NC(=O)c1cccnc1-n1ccc(-c2ccc(F)cc2F)n1 (stereo not shown) [Example 94, N-[3-Amino-2,3-dioxo-1-(phenylmethyl)propyl]-2-[3-(2,4-difluorophenyl)-1H-pyrazol-1-yl]pyridine-3-carboxamide]	40 to 100	++ (Ki(cathepsin B)/Ki(calpain) ratio of ≧30)	+ (10≦Ki(cathepsin K)/Ki(calpain)<30)	++ (Ki(cathepsin L)/Ki(calpain) ratio of ≧50)	++ (Ki(cathepsin S)/Ki(calpain) ratio of ≧100)
NC(=O)C(=O)C(Cc1ccccc1)NC(=O)c1cccnc1-n1ccc(-c2ccc(Cl)s2)n1 (stereo not shown) [Example 103, N-[3-Amino-2,3-dioxo-1-(phenylmethyl)propyl]-2-[3-(5-chloro-2-thienyl)-1H-pyrazol-1-yl]pyridine-3-carboxamide]	≤ 40	+ (10≦Ki(cathepsin B)/Ki(calpain)<30)	+ (10≦Ki(cathepsin K)/Ki(calpain)<30)	++ (Ki(cathepsin L)/Ki(calpain) ratio of ≧50)	++ (Ki(cathepsin S)/Ki(calpain) ratio of ≧100)
NC(=O)C(=O)[C@H](Cc1ccccc1)NC(=O)c1cccnc1-n1ccc(-c2ccccc2)n1 [Example 107, N-[(1S)-3-Amino-2,3-dioxo-1-(phenylmethyl)propyl]-2-(3-phenyl-1H-pyrazol-1-yl)pyridine-3-carboxamide]	≤ 40	+ (10≦Ki(cathepsin B)/Ki(calpain)<30)	+ (10≦Ki(cathepsin K)/Ki(calpain)<30)	++ (Ki(cathepsin L)/Ki(calpain) ratio of ≧50)	++ (Ki(cathepsin S)/Ki(calpain) ratio of ≧100)
NC(=O)C(=O)C(Cc1ccccc1)NC(=O)c1cccnc1-n1ccc(-c2sccc2Cl)n1 (stereo not shown) [Example 109, N-[3-Amino-2,3-dioxo-1-(phenylmethyl)propyl]-2-[3-(3-chloro-2-thienyl)-1H-pyrazol-1-yl]pyridine-3-carboxamide]	≤ 40	++ (Ki(cathepsin B)/Ki(calpain) ratio of ≧30)	++ (Ki(cathepsin K)/Ki(calpain) ratio of ≧30)	++ (Ki(cathepsin L)/Ki(calpain) ratio of ≧50)	++ (Ki(cathepsin S)/Ki(calpain) ratio of ≧100)

Second part, led by results:

Ki [1] [nM]	Structure (SMILES)	Sel cat. B (Ki(cathepsin B)/Ki(calpain) ratio) [2]	Sel cat. K (Ki(cathepsin K)/Ki(calpain) ratio) [3]	Sel cat. L (Ki(cathepsin L)/Ki(calpain) ratio) [4]	Sel cat. S (Ki(cathepsin S)/Ki(calpain) ratio) [5]
≤ 40	NC(=O)C(=O)C(Cc1ccccc1)NC(=O)c1cccnc1-n1ccc(-c2c(Cl)cccc2Cl)n1 (stereo not shown) [Example 95, N-[3-Amino-2,3-dioxo-1-(phenylmethyl)propyl]-2-[3-(2,6-dichlorophenyl)-1H-pyrazol-1-yl]pyridine-3-carboxamide]	++ (Ki(cathepsin B)/Ki(calpain) ratio of ≧30)	++ (Ki(cathepsin K)/Ki(calpain) ratio of ≧30)	++ (Ki(cathepsin L)/Ki(calpain) ratio of ≧50)	++ (Ki(cathepsin S)/Ki(calpain) ratio of ≧100)
≤ 40	NC(=O)C(=O)C(Cc1ccccc1)NC(=O)c1cccnc1-n1ccc(-c2cccc(OCc3ccccc3)c2)n1 (stereo not shown) [Example 96, N-[3-Amino-2,3-dioxo-1-(phenylmethyl)propyl]-2-(3-{3-[(phenylmethyl)oxy]phenyl}-1H-pyrazol-1-yl)pyridine-3-carboxamide]	++ (Ki(cathepsin B)/Ki(calpain) ratio of ≧30)	++ (Ki(cathepsin K)/Ki(calpain) ratio of ≧30)	++ (Ki(cathepsin L)/Ki(calpain) ratio of ≧50)	++ (Ki(cathepsin S)/Ki(calpain) ratio of ≧100)
≤ 40	COc1ccc(CC(NC(=O)c2cccnc2-n2ccc(-c3ccc(F)cc3F)n2)C(=O)C(N)=O)cc1 (stereo not shown) [Example 97, N-(3-Amino-1-{[4-(methyloxy)phenyl]methyl}-2,3-dioxopropyl)-2-[3-(2,4-difluorophenyl)-1H-pyrazol-1-yl]pyridine-3-carboxamide]	++ (Ki(cathepsin B)/Ki(calpain) ratio of ≧30)	+ (10≦Ki(cathepsin K)/Ki(calpain)<30)	++ (Ki(cathepsin L)/Ki(calpain) ratio of ≧50)	++ (Ki(cathepsin S)/Ki(calpain) ratio of ≧100)
≤ 40	COc1ccc(CC(NC(=O)c2cccnc2-n2ccc(-c3ccc(Cl)cc3Cl)n2)C(=O)C(N)=O)cc1 (stereo not shown) [Example 98, N-(3-Amino-1-{[4-(methyloxy)phenyl]methyl}-2,3-dioxopropyl)-2-[3-(2,4-dichlorophenyl)-1H-pyrazol-1-yl]pyridine-3-carboxamide]	++ (Ki(cathepsin B)/Ki(calpain) ratio of ≧30)	++ (Ki(cathepsin K)/Ki(calpain) ratio of ≧30)	++ (Ki(cathepsin L)/Ki(calpain) ratio of ≧50)	++ (Ki(cathepsin S)/Ki(calpain) ratio of ≧100)
≤ 40	NC(=O)C(=O)C(Cc1ccccc1)NC(=O)c1cccnc1-n1ccc(-c2ccc(N3CCOCC3)cc2Cl)n1 (stereo not shown) [Example 99, N-[3-Amino-2,3-dioxo-1-(phenylmethyl)propyl]-2-[3-(2-chloro-4-morpholin-4-ylphenyl)-1H-pyrazol-1-yl]pyridine-3-carboxamide]	++ (Ki(cathepsin B)/Ki(calpain) ratio of ≧30)	++ (Ki(cathepsin K)/Ki(calpain) ratio of ≧30)	++ (Ki(cathepsin L)/Ki(calpain) ratio of ≧50)	++ (Ki(cathepsin S)/Ki(calpain) ratio of ≧100)
≤ 40	NC(=O)C(=O)C(Cc1ccccc1)NC(=O)c1cccnc1-n1cc2c(n1)-c1ccccc1OC2 (stereo not shown) [Example 100, N-[3-Amino-2,3-dioxo-1-(phenylmethyl)propyl]-2-chromeno[4,3-c]pyrazol-2(4H)-ylpyridine-3-carboxamide]	+ (10≦Ki(cathepsin B)/Ki(calpain)<30)	++ (Ki(cathepsin K)/Ki(calpain) ratio of ≧30)	++ (Ki(cathepsin L)/Ki(calpain) ratio of ≧50)	++ (Ki(cathepsin S)/Ki(calpain) ratio of ≧100)
≤ 40	NC(=O)C(=O)C(Cc1ccccc1)NC(=O)c1cccnc1-n1ccc(-c2ccc(N3CCOCC3)cc2F)n1 (stereo not shown) [Example 102, N-[3-Amino-2,3-dioxo-1-(phenylmethyl)propyl]-2-[3-(2-fluoro-4-morpholin-4-ylphenyl)-1H-pyrazol-1-yl]pyridine-3-carboxamide]	+ (10≦Ki(cathepsin B)/Ki(calpain)<30)	++ (Ki(cathepsin K)/Ki(calpain) ratio of ≧30)	++ (Ki(cathepsin L)/Ki(calpain) ratio of ≧50)	++ (Ki(cathepsin S)/Ki(calpain) ratio of ≧100)
